Results published in publication PMC3690544 (European journal of pharmacology, 2012).
Where two headings read alike, the source gives them in different places.

Experiments:
P-glycoprotein (Pgp) [1] = molecular target: T1, P-glycoprotein (Pgp) (Homo sapiens, UniProt P08183); assay type: cell-based
P-glycoprotein (Pgp) [2] = molecular target: T1, P-glycoprotein (Pgp); assay type: cell-based; remark: listed apart in the source

T1 sequence (P08183 whole entry): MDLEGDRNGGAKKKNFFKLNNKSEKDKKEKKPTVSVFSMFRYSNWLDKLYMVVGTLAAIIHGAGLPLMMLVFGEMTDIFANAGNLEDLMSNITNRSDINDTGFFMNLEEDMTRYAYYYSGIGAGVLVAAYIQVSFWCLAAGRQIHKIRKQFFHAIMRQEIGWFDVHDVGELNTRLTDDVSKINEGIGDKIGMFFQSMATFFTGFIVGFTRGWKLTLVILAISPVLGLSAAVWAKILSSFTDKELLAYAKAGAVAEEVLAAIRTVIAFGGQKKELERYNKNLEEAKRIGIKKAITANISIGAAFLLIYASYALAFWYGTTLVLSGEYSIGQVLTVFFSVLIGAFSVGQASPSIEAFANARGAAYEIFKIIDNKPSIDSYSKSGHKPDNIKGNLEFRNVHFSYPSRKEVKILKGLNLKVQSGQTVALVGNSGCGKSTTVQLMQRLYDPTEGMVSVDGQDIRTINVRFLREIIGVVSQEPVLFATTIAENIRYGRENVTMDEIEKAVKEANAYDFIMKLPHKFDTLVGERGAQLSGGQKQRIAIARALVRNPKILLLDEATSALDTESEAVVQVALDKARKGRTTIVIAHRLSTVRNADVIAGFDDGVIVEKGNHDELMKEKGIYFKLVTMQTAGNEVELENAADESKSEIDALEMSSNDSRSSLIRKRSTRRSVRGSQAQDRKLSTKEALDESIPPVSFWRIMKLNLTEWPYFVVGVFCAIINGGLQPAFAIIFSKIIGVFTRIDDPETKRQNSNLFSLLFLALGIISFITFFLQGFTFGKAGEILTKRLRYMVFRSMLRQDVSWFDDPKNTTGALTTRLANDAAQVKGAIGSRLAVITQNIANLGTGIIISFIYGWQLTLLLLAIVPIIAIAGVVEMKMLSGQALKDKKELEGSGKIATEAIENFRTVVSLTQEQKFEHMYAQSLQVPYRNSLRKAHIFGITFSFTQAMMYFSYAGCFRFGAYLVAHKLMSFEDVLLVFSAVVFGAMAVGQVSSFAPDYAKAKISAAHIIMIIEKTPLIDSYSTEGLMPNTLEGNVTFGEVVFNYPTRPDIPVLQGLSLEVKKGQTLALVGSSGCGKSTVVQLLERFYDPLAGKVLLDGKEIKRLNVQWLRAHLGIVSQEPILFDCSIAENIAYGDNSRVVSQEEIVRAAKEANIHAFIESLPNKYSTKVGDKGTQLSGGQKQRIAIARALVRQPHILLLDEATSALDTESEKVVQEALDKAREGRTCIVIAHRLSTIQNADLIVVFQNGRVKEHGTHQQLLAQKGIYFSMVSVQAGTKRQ

Row | IC50 (P-glycoprotein (Pgp) [1]) [nM] | IC50 (P-glycoprotein (Pgp) [2]) [nM] | Compound
1 | 8.2 ± 2 | – | COc1cc2c(cc1OC)CN(CCc1ccc(NC(=O)c3cc(OC)c(OC)cc3NC(=O)c3cnc4ccccc4c3)cc1)CC2 [tariquidar]
2 | – | 13.1 ± 2.3 | COc1cc2c(cc1OC)CN(CCc1ccc(-n3nnc(-c4cc(OC)c(OC)cc4NC(=O)c4cc(=O)c5ccccc5o4)n3)cc1)CC2 [HM30181, N-(2-(2-(4-(2-(6,7-dimethoxy-3,4-dihydroisoquinolin-2(1H)-yl)ethyl)phenyl)-2H-tetrazol-5-yl)-4,5-dimethoxyphenyl)-4-oxo-4H-chromene-2-carboxamide]
